In patent US10092002B2, “Herbicidal composition comprising nicosulfuron or its salt and S -metolachlor or its salt” (ISHIHARA SANGYO KAISHA, LTD., priority 2011, dated 2018):

What was measured:
Format in all cases: in vivo
[1] = system: annual bluegrass (Poa annua L.) having lowered sensitivity to herbicides; test: Test Example 8: foliar treatment of annual bluegrass having lowered sensitivity to herbicides, visual growth inhibition rate; details: foliar treatment at 5 to 6-leaf stage, 14th day after treatment
Description: When the herbicidal activity in a case where two active ingredients are combined, is larger than the simple sum of the respective herbicidal activities of the two active ingredients (the expected activity), it is called a synergistic effect. The activity expected by the combination of two active ingredients can be calculated as follows (Colby S. R., “Weed”, vol. 15, p. 20-22, 1967). E1=α+β−(α×β÷100)
(§1) Growth inhibition rate (%)=0 (equivalent to the non-treated area) to 100 (complete kill)
Upland field soil was put into a 1/1,000,000 ha pot, and seeds of annual bluegrass (Poa annua L.) having lowered sensitivity to herbicides were sown. When the annual bluegrass reached 5 to 6-leaf stage, predetermined amounts of ONEHOPE NYUZAI (tradename) and Dual Gold (tradename) were diluted with water (corresponding to 300 L/ha) and applied for foliar treatment by a small sprayer.
The growth inhibition rate (%) (measured value) and the growth inhibition rate (%) calculated in the same manner as in Test Example 1 are shown in Table 9.

[2] = system: summergrass (Digitaria ciliaris (Retz.) Koel); test: Test Example 5: foliar treatment of summergrass in 7 to 9-leaf stage, visual growth inhibition rate; details: foliar treatment at 7 to 9-leaf stage, 14th day after treatment
Description: When the herbicidal activity in a case where two active ingredients are combined, is larger than the simple sum of the respective herbicidal activities of the two active ingredients (the expected activity), it is called a synergistic effect. The activity expected by the combination of two active ingredients can be calculated as follows (Colby S. R., “Weed”, vol. 15, p. 20-22, 1967). E1=α+β-(α×β÷100) On the 22nd day after treatment, the state of growth of the common cocklebur was visually observed to determine the growth inhibition rate in accordance with the following evaluation standard. The growth inhibition rate (%) (measured value) and the growth inhibition rate (%) (calculated value) calculated by the Colby's formula are shown in Table 1. […] Upland field soil was put into a 1/1,000,000 ha pot, and seeds of summergrass (Digitaria ciliaris (Retz.) Koel) were sown. When the summergrass reached 7 to 9-leaf stage, predetermined amounts of […] Dual Gold (tradename) were diluted with water (corresponding to 300 L/ha) and applied for foliar treatment by a small sprayer. On the 14th day after treatment, the state of growth of the summergrass was visually observed to determine the growth inhibition rate.

[3] = system: sunn-hemp (Crotalaria juncea L.); test: Test Example 4: soil treatment, sunn-hemp, visual growth inhibition rate; details: soil treatment the day after sowing, 28th day after treatment
Description: In a case where three active ingredients are combined, the activity can be similarly calculated as follows. E2=(α+β+γ)−(αβ+αγ+βγ)/100+(αβγ)/10000 where α: growth inhibition rate when treated with x (g/ha) of herbicide X,
as §1
Upland field soil was put into a 1/300,000 ha pot, and seeds of sunn-hemp (Crotalaria juncea L.) were sown.

Row | Compound | inhibition at 100 g/ha ([1]; Poa annua, dose 100 g/ha, read-out: Growth inhibition rate (%) of annual bluegrass, Measured value) | inhibition at 15 g/ha ([2]; Digitaria ciliaris, dose 15 g/ha, read-out: Growth inhibition rate (%) of summergrass, Measured value) | inhibition at 10 g/ha ([3]; Crotalaria juncea, dose 10 g/ha, read-out: Growth inhibition rate (%) of sunn-hemp, Measured value) | inhibition at 100 g/ha ([3]; Crotalaria juncea, dose 100 g/ha, read-out: Growth inhibition rate (%) of sunn-hemp, Measured value) | Growth inhibition rate (%) of annual bluegrass, Measured value ([1]; dose 1000 g/ha) | Growth inhibition rate (%) of annual bluegrass, Measured value ([1]; dose 2000 g/ha) | Growth inhibition rate (%) of summergrass, Measured value ([2]; dose 500 g/ha) | Growth inhibition rate (%) of summergrass, Measured value ([2]; dose 2000 g/ha) | Growth inhibition rate (%) of sunn-hemp, Measured value ([3]; dose 250 g/ha) | Growth inhibition rate (%) of sunn-hemp, Measured value ([3]; dose 2000 g/ha)
1 | COc1cc(OC)nc(NC(=O)NS(=O)(=O)c2ncccc2C(=O)N(C)C)n1 [Nicosulfuron, 2-(4,6-dimethoxypyrimidin-2-ylcarbamoylsulfamoyl)-N,N-dimethylnicotinamide] | 87% | 53% | 0% | 0% | – | – | – | – | – | –
2 | a mixture of (aRS,1S)-2-chloro-6′-ethyl-N-(2-methoxy-1-methylethyl)aceto-o-toluidide (80 to 100%) and (aRS,1R)-2-chloro-6′-ethyl-N-(2-methoxy-1-methylethyl)aceto-o-toluidide (20 to 0%) [S-metolachlor] | – | – | – | – | 18% | 28% | 0% | 0% | 0% | 0%
